The source of these data is patent publication US11168073B2, “3,3-difluoroallylamines or salts thereof and pharmaceutical compositions comprising the same” (YUHAN CORPORATION, priority 2018, dated 2021).

The structures appear in SMILES notation. Counter-ions that a name gives are not always drawn. Like-named read-outs stand apart in the source and are kept apart here. Where only a bound is given, the exact number is not on record here.

What all share (type): biochemical
One assay has as its target T1, recombinant human VAP-1 (Homo sapiens, UniProt Q16853).
T1 construct: purchased R&D systems
T1 sequence (Q16853 1-763): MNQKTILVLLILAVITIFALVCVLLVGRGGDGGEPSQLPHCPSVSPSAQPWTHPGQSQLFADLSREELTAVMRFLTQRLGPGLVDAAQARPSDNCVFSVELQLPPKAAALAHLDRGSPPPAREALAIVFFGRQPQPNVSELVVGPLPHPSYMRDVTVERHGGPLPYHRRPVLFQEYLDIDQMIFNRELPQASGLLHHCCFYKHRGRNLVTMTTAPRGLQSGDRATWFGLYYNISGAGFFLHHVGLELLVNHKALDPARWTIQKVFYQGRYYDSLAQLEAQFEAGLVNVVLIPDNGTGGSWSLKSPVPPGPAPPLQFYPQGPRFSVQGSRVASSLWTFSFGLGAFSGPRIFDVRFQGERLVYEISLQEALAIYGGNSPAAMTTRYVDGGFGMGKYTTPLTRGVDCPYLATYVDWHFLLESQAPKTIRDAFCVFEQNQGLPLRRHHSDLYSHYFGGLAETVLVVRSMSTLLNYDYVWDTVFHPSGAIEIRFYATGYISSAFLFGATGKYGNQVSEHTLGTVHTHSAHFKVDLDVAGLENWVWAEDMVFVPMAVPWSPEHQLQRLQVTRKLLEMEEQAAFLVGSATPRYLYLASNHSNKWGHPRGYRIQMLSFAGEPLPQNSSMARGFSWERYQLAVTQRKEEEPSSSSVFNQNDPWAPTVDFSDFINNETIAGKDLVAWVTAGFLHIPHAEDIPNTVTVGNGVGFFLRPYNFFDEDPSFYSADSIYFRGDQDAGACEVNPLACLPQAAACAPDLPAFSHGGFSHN
The assay can be described thus: Activity evaluation on recombinant human VAP-1 (Amplex Red/HRP-coupled hydrogen peroxide assay, benzylamine substrate). To be noted: read-out: Inhibitory Activity (IC50, nM) human VAP-1. Summed up:
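Recombinant human VAP-1 in 50 mM sodium phosphate pH 7.4 preincubated 30 min at 37 °C with compound (8-point 1:3 series, <1% DMSO), then 1 mM benzylamine, 200 uM Amplex Red, 1 U/mL HRP added. H2O2-derived resorufin fluorescence (ex 544/em 590) followed 1–2 h; IC50 from four-parameter fit of rate inhibition.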

The target in assay [1] is T2, recombinant human DAO (diamine oxidase) (Homo sapiens, UniProt P19801).
T2 construct: purchased R&D systems
T2 sequence (P19801 20-751): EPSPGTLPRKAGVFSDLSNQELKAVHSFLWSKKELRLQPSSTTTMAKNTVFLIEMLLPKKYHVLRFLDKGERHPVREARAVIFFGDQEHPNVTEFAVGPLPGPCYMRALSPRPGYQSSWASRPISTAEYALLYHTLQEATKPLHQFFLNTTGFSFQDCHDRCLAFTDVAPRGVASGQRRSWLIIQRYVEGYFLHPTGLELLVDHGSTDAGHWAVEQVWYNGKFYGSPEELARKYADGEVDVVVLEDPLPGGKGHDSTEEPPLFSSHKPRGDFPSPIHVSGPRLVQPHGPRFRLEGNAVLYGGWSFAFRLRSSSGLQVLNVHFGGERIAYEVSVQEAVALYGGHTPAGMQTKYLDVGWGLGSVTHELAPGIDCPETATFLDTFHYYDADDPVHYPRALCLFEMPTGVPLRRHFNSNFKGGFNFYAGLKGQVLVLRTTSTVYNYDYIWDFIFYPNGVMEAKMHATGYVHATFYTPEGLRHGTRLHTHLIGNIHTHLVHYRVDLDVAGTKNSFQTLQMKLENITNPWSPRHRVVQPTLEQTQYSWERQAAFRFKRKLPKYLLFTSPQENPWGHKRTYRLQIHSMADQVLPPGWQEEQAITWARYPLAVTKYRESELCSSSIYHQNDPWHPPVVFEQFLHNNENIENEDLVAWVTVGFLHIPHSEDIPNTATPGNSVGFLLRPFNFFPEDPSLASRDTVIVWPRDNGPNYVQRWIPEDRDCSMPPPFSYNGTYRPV
The assay can be described thus: Activity evaluation on recombinant human DAO (Amplex Red/HRP-coupled assay, 1 mM putrescine substrate). To be noted: read-out: Inhibitory Activity (IC50, nM) DAO. The gist of the method:
(§1)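 Compounds preincubated 30 min at 37 °C with enzyme in 50 mM sodium phosphate pH 7.4 (final DMSO <1%, 8-point 1:3 dilutions); reaction started with 200 uM Amplex Red, 1 U/mL HRP and substrate (MAO-A 0.5 mM tyramine, MAO-B 1 mM benzylamine, DAO 1 mM putrescine). Resorufin fluorescence (ex 544/em 590 nm) followed over 1-2 h; IC50 from four-parameter logistic fit.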

In assay [2] the target is T3, recombinant human MAO-B (monoamine oxidase-B) (Homo sapiens, UniProt P27338).
T3 construct: purchased Sigma-Aldrich
T3 sequence (P27338 1-520): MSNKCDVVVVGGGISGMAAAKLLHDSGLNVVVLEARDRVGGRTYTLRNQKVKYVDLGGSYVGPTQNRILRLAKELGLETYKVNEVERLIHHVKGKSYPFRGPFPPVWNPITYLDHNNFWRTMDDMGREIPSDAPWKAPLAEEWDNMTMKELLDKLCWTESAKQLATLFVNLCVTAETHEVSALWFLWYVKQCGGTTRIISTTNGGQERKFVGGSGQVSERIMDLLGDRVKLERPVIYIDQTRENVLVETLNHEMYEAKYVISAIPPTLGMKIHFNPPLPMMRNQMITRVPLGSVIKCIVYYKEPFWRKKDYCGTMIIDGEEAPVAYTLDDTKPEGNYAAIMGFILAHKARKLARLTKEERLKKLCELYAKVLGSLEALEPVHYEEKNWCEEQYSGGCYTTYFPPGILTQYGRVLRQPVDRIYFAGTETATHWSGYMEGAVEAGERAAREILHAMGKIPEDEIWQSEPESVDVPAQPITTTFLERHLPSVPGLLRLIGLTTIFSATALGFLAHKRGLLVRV
The assay can be described thus: Activity evaluation on recombinant human MAO-B (Amplex Red/HRP-coupled assay, 1 mM benzylamine substrate). Conditions: read-out: Inhibitory Activity (IC50, nM) MAO-B. The gist of the method: as §1

Assay [3] deals with T4, recombinant human MAO-A (monoamine oxidase-A) (Homo sapiens, UniProt P21397).
T4 construct: purchased Sigma-Aldrich
T4 sequence (P21397 1-527): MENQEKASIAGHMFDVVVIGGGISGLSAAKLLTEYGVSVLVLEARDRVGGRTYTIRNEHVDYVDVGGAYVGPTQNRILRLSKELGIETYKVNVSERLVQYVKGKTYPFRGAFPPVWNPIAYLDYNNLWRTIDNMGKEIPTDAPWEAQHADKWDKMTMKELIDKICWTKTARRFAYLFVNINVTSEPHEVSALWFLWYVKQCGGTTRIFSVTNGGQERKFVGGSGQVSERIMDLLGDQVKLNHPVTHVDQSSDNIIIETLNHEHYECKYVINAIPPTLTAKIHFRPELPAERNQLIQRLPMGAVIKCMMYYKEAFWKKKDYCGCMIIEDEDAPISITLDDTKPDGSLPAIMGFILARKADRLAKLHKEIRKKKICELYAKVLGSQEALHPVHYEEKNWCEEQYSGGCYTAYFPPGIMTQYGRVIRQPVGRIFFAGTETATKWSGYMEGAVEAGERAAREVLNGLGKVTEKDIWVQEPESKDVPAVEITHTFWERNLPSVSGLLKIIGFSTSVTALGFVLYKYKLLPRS
The assay can be described thus: Activity evaluation on recombinant human MAO-A (Amplex Red/HRP-coupled assay, 0.5 mM tyramine substrate). To be noted: read-out: Inhibitory Activity (IC50, nM) MAO-A. The gist of the method: as §1

The mark [4] stands for this setting: recombinant human VAP-1, benzylamine substrate.
Where [5] appears, read: recombinant human VAP-1, 30 min preincubation at 37° C., 1 mM benzylamine.

Turning to `Cc1cc(-c2ccc(N3CCNCC3)nc2)cnc1-n1cnn(CC(CN)=C(F)F)c1=O` [Example 220, 2-[2-(aminomethyl)-3,3-difluoro-allyl]-4-[3-methyl-5-(6-piperazin-1-yl-3-pyridyl)-2-pyridyl]-1,2,4-triazol-3-one Ditrifluoroacetate], the IC50 (usually the midpoint of a concentration-inhibition curve) on recombinant human VAP-1 (setting [4]) is 1.1 nM; in assay [1] (1 mM putrescine substrate), 11000 nM; in assay [2] (1 mM benzylamine substrate), > 100000 nM; in assay [3] (0.5 mM tyramine substrate) it was > 100000 nM.

As for `NCC(Cn1ncn(Cc2ccc(-c3ccc4nonc4c3)s2)c1=O)=C(F)F` [Example 129, 2-[2-(aminomethyl)-3,3-difluoro-allyl]-4-[[5-(2,1,3-benzoxadiazol-5-yl)-2-thienyl]methyl]-1,2,4-triazol-3-one Trifluoroacetate], the IC50 is 0.7 nM at recombinant human VAP-1 (setting [5]), 21000 nM in assay [1] (1 mM putrescine), 311 nM in assay [2] (1 mM benzylamine) and > 100000 nM in assay [3] (0.5 mM tyramine).

With `CN1C(=O)CCc2cc(-c3cccc(Cn4cnn(CC(CN)=C(F)F)c4=O)c3)ccc21` [Example 276, 6-[3-[[1-[2-(aminomethyl)-3,3-difluoro-allyl]-5-oxo-1,2,4-triazol-4-yl]methyl]phenyl]-1-methyl-3,4-dihydroquinolin-2-one Trifluoroacetate], the IC50 at recombinant human VAP-1 (setting [4]) is 0.5 nM; in assay [1] (1 mM putrescine substrate) it was 3080 nM; in assay [2] (1 mM benzylamine substrate) it was 2250 nM; in assay [3] (0.5 mM tyramine substrate), > 100000 nM.

As for `Cc1cc(-c2ccc3c(c2)OCCN3C)cnc1-n1cnn(CC(CN)=C(F)F)c1=O` [Example 223, 2-[2-(aminomethyl)-3,3-difluoro-allyl]-4-[3-methyl-5-(4-methyl-2,3-dihydro-1,4-benzoxazin-7-yl)-2-pyridyl]-1,2,4-triazol-3-one Trifluoroacetate], the IC50 at recombinant human VAP-1 (setting [4]) was 1.5 nM; in assay [1] (1 mM putrescine substrate) it was 37000 nM; in assay [2] (1 mM benzylamine substrate), 38000 nM; in assay [3] (0.5 mM tyramine substrate), > 10000 nM.

As to `NCC(Cn1ncn(CCc2ccc(-c3ccc4c(c3)OCO4)s2)c1=O)=C(F)F` [Example 177, 2-[2-(aminomethyl)-3,3-difluoro-allyl]-4-[2-[5-(1,3-benzodioxol-5-yl)-2-thienyl]ethyl]-1,2,4-triazol-3-one Trifluoroacetate], the IC50 was 1.2 nM at recombinant human VAP-1 (setting [5]), 2500 nM in assay [1] (1 mM putrescine), 700 nM in assay [2] (1 mM benzylamine) and > 100000 nM in assay [3] (0.5 mM tyramine).

`Cc1cc(-c2ccc3c(c2)CCC(=O)N3C)cnc1-n1cnn(CC(CN)=C(F)F)c1=O` [Example 74, 6-[6-[1-[2-(aminomethyl)-3,3-difluoro-allyl]-5-oxo-1,2,4-triazol-4-yl]-5-methyl-3-pyridyl]-1-methyl-3,4-dihydroquinolin-2-one Trifluoroacetate]: the IC50 is 0.3 nM on recombinant human VAP-1 (setting [5]), 6500 nM in assay [1] (1 mM putrescine), 7500 nM in assay [2] (1 mM benzylamine) and > 100000 nM in assay [3] (0.5 mM tyramine).

As to `NCC(Cn1ncn(-c2cc(Br)ccn2)c1=O)=C(F)F` [Example 9, 2-[2-(aminomethyl)-3,3-difluoro-allyl]-4-(4-bromo-2-pyridyl)-1,2,4-triazol-3-one Trifluoroacetate], the IC50 on recombinant human VAP-1 (setting [5]) is 3.5 nM; in assay [1] (1 mM putrescine), 7100 nM; in assay [2] (1 mM benzylamine), > 100000 nM; in assay [3] (0.5 mM tyramine), > 100000 nM.

As for `CCn1cc(-c2cccc(-n3cnn(CC(CN)=C(F)F)c3=O)c2C)cn1` [Example 260, 2-[2-(aminomethyl)-3,3-difluoro-allyl]-4-[3-(1-ethylpyrazol-4-yl)-2-methyl-phenyl]-1,2,4-triazol-3-one Trifluoroacetate], the IC50 at recombinant human VAP-1 (setting [4]) was 3.7 nM; in assay [1] (1 mM putrescine substrate), > 100000 nM; in assay [2] (1 mM benzylamine substrate) it was > 100000 nM; in assay [3] (0.5 mM tyramine substrate), > 100000 nM.

As for `NCC(Cn1ncn(-c2cnc(-c3ccc(N4CCNCC4)cc3)cn2)c1=O)=C(F)F` [Example 90, 2-[2-(aminomethyl)-3,3-difluoro-allyl]-4-[5-(4-piperazin-1-ylphenyl)pyrazin-2-yl]-1,2,4-triazol-3-one Ditrifluoroacetate], the IC50 at recombinant human VAP-1 (setting [5]) is 1.3 nM; in assay [1] (1 mM putrescine) it was 30 nM; in assay [2] (1 mM benzylamine), > 100000 nM; in assay [3] (0.5 mM tyramine), > 100000 nM.

On to `CS(=O)(=O)c1ccc(-c2ccc(-n3cnn(CC(CN)=C(F)F)c3=O)c(F)c2)cc1` [Example 31, 2-[2-(aminomethyl)-3,3-difluoro-allyl]-4-[2-fluoro-4-(4-methylsulfonylphenyl)phenyl]-1,2,4-triazol-3-one Trifluoroacetate], for which the IC50 at recombinant human VAP-1 (setting [5]) was 0.2 nM; in assay [1] (1 mM putrescine) it was 59 nM; in assay [2] (1 mM benzylamine), 870 nM; in assay [3] (0.5 mM tyramine), > 100000 nM.

Consider `CN(C)c1ccc(-c2ccc(Cn3cnn(CC(CN)=C(F)F)c3=O)cc2)cn1` [Example 267, 2-[2-(aminomethyl)-3,3-difluoro-allyl]-4-[[4-[6-(dimethylamino)-3-pyridyl]phenyl]methyl]-1,2,4-triazol-3-one Trifluoroacetate], for which the IC50 at recombinant human VAP-1 (setting [4]) was 1.1 nM; in assay [1] (1 mM putrescine substrate) it was > 100000 nM; in assay [2] (1 mM benzylamine substrate), > 100000 nM; in assay [3] (0.5 mM tyramine substrate), > 100000 nM.
